This is an account of results in PMC3914206.

Assay [1] deals with T1, panel of 442 kinases (Homo sapiens, UniProt Q14004).
T1 construct: purchased KINOMEscan
Format: binding. The following applies: Compound Concentration 10 µM. An excerpt:
(§1) We assessed the selectivity of members of this scaffold using the KINOMEscan methodology across a near comprehensive panel of 442 kinases [[18,27]].

Assay [2] deals with T2, panel of 442 kinases (Homo sapiens, UniProt O95382).
T2 construct: purchased KINOMEscan
T2 sequence (O95382 1-1288): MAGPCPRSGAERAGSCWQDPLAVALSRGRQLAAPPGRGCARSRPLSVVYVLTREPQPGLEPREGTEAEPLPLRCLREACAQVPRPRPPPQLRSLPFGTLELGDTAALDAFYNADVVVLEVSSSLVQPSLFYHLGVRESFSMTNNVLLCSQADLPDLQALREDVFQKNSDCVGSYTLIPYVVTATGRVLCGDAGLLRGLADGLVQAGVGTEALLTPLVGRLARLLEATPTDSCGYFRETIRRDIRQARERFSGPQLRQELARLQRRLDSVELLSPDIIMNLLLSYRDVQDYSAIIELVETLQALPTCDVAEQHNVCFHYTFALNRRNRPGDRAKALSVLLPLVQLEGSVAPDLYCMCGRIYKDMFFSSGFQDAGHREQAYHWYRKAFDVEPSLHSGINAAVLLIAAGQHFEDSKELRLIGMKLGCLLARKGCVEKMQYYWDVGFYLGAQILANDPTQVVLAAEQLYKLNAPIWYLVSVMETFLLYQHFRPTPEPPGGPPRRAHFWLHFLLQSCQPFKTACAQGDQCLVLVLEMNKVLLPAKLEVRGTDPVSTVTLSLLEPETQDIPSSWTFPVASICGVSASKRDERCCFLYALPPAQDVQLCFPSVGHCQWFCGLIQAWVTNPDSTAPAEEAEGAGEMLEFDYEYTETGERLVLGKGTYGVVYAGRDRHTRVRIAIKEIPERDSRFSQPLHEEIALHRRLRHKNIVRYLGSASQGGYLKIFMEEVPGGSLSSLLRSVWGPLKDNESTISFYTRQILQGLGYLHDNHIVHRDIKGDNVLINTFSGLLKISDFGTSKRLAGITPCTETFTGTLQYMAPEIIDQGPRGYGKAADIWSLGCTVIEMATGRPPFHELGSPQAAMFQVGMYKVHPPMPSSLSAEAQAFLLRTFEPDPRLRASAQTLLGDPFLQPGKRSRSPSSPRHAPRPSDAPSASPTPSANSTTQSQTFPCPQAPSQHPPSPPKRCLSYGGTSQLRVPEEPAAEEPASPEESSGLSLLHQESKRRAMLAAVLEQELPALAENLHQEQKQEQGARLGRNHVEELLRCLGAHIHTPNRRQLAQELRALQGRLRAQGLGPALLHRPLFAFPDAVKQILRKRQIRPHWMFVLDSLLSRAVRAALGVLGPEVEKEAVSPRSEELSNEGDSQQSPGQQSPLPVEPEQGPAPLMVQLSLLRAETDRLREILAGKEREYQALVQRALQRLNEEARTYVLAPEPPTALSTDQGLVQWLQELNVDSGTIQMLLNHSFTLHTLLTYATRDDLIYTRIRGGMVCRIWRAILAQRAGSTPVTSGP
It counts as binding. The following applies: Compound Concentration 10 µM.
Source text: as §1

T1 sequence (Q14004 whole entry): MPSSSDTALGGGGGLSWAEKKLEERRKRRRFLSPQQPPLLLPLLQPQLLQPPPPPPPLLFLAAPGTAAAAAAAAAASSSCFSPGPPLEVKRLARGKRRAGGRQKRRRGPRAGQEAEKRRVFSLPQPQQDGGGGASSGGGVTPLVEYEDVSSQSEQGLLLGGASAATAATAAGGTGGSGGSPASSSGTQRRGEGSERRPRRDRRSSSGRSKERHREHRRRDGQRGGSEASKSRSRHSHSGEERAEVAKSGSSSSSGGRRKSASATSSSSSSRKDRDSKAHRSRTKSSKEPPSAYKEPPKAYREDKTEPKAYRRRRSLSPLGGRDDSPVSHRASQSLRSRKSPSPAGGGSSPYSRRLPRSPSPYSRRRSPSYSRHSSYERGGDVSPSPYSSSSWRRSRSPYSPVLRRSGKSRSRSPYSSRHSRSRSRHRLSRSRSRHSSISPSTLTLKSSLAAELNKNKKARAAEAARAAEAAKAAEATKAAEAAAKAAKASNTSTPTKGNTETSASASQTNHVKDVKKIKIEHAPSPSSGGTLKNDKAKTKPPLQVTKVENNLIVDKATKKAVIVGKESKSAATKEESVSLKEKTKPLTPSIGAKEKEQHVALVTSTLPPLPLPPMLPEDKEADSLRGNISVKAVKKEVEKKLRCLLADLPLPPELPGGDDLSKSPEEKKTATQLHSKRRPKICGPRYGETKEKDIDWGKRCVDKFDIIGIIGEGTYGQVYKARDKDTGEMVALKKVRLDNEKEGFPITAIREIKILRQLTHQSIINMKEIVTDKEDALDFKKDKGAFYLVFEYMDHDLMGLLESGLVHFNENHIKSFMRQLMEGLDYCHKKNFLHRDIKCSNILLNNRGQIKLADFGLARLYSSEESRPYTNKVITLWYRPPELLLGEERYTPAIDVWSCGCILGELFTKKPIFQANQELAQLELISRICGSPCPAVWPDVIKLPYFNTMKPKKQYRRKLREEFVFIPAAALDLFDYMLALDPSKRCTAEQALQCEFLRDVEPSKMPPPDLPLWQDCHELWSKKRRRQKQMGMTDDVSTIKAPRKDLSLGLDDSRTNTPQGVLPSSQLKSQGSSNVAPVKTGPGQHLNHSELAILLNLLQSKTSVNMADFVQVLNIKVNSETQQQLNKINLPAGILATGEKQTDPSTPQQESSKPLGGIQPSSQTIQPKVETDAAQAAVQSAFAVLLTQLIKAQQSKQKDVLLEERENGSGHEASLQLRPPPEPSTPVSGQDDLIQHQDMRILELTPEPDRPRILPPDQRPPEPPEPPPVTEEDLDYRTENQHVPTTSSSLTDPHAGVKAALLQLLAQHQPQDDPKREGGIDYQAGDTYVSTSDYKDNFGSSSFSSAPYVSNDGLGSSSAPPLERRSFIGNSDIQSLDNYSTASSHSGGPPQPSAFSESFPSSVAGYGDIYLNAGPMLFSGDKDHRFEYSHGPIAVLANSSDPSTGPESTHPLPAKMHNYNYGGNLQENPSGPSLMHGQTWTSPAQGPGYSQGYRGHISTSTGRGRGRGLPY

As to `CCOc1cc(C(=O)N2CCC(N3CCN(C)CC3)CC2)ccc1Nc1ncc2c(n1)N(C1CCCC1)c1ccccc1C(=O)N2C` [Compound 26], on panel of 442 kinases [1], the “KINOMEscan: CDC2L5” value is 100. In addition, on panel of 442 kinases [2], the “KINOMEscan: ASK2” value worked out at 100.

For the compound `COc1cc(C(=O)N2CCC(N3CCN(C)CC3)CC2)ccc1Nc1ncc2c(n1)N(C)c1ccccc1C(=O)N2C` [15 (LRRK2-IN-1)], the “KINOMEscan: CDC2L5” value at panel of 442 kinases [1] amounted to 100. For the same compound, the “KINOMEscan: ASK2” value at panel of 442 kinases [2] was 100.

Take `COc1cc(C(=O)N2CCC(N3CCN(C)CC3)CC2)ccc1Nc1ncc2c(n1)N(C1CCCC1)c1ccccc1C(=O)N2C` [Compound 25, 11-cyclopentyl-2-((2-methoxy-4-(4-(4-methylpiperazin-1-yl)piperidine-1-carbonyl)phenyl)amino)-5-methyl-5H-benzo[e]pyrimido[5,4-b][1,4]diazepin-6(11H)-one]: the “KINOMEscan: CDC2L5” value on panel of 442 kinases [1] was determined as 100. In addition, at panel of 442 kinases [2], the “KINOMEscan: ASK2” value is 100.
